Measurements from US12325710B2, “Substituted 1,2,3,4,5,6-hexahydroazepino[4,5-b]indoles for treating brain disorders” (priority 2019, dated 2025).
“Also recorded” adds a separate entry of the source.

Legend:
[1] = test system: larval zebrafish expressing GCaMP5; experiment: Seizurogenic potential in larval zebrafish expressing GCaMP5; type: in vivo; details: 200 μM; PTZ positive control
Description: Transgenic larval zebrafish expressing GCaMP5G were immobilized in agarose, treated with compounds, and imaged over time. The known seizure-inducing compound PTZ was used as a positive control. All compounds were treated at 200 μM (n=2 per condition).

mouse 5-HT2A receptors = mouse 5-HT2A receptors (Mus musculus, UniProt P35363); experiment: 5-HT2A Gq-mediated calcium flux functional assay (mouse); type: cell-based
Description: Serotonin and Opioid Receptor Functional Assays. Functional assay screens at 5-HT and opioid receptors were performed in parallel using the same compound dilutions and 384-well format high-throughput assay platforms. Assays assessed activity at all human isoforms of the receptors, except where noted for the mouse 5-HT2A receptor. Receptor constructs in pcDNA vectors were generated from the Presto-Tango GPCR library with minor modifications. All compounds were serially diluted in drug buffer (HBSS, 20 mM HEPES, pH 7.4 supplemented with 0.1% bovine serum albumin and 0.01% ascorbic acid) and dispensed into 384-well assay plates using a FLIPR^TETRA (Molecular Devices). Every plate included a positive control such as 5-HT (for all 5-HT receptors), DADLE (DOR), salvinorin A (KOR), and DAMGO (MOR). For measurements of 5-HT2A, 5-HT2B, and 5-HT2C Gq-mediated calcium flux function, HEK Flp-In 293 T-Rex stable cell lines (Invitrogen) were loaded with Fluo-4 dye for one hour, stimulated with compounds and read for baseline (0-10 seconds) and peak fold-over-basal fluorescence (5 minutes) at 25° C. on the FLIPR^TETRA. For measurement of 5-HT6 and 5-HT7a functional assays, Gs-mediated cAMP accumulation was detected using the split-luciferase GloSensor assay in HEKT cells measuring luminescence on a Microbeta Trilux (Perkin Elmer) with a 15 min drug incubation at 25° C. […]

C57/BL6J mice [2] = experiment: Two-bottle choice alcohol consumption (binge drinking); type: in vivo, mouse
Description: Alcohol Consumption. Male C57/BL6J mice (6-8 weeks old) were obtained from The Jackson Laboratory (Bar Harbor, ME) and were individually housed in a reverse light/dark cycle room (lights on […]). Temperature was kept constant at 22±2° C., and relative humidity was maintained at 50±5%. Mice were given access to food and tap water ad libitum. After one week of habituation to the vivarium, the two-bottle choice alcohol-drinking paradigm was conducted as described previously. For 7 weeks, mice were given intermittent access in their home cage to alcohol. On Mondays, Wednesdays, and Fridays, two bottles were made available for 24 h—one containing 20% ethanol and another containing only water. On Tuesdays, Thursdays, Saturdays, and Sundays, the animals were only given access to water. After 7 weeks, mice were administered TBG (50 mg/kg) or vehicle (saline) via intraperitoneal injection 3 h before the beginning of a drinking session. Ethanol (g/kg) and water (ml/kg) intake were monitored during the first 4 h (initial binge), the first 24 h, and the second 24 h. Next, the animals were only given water for 48 h before the start of another drinking session when ethanol and water consumption was monitored. The placement (right or left) of the bottles was altered in each session to control for side preference. Spillage was monitored using an additional bottle in a nearby unused cage. Alcohol preference was calculated as the ratio between alcohol/(water+alcohol). Mice were tested using a counterbalanced, within subject design with one week of drug-free alcohol drinking regimen between treatments. One mouse was excluded because the bottle was leaking.

larval zebrafish = experiment: Larval zebrafish movement activity during a battery of light and acoustic stimuli
Text: Stimuli applied over time are indicated under the heatmaps. Colors indicate bright LED light of respective colors, black traces represent the waveforms of acoustic stimuli, and gray vertical lines indicate physical tapping as secondary acoustic stimuli.
Response is […] proportional to classification accuracy; 0-20% indicates no ability and 100% indicates perfect classification. […] The solid line denotes the median and the shading denotes a 95th percentile confidence interval calculated by bootstrap. N=8 wells/condition (64 animals/condition).

C57/BL6J mice [3] = experiment: Forced swim test (FST); type: in vivo, mouse; details: 24 h after drug administration; TBG 50 mg/kg, ketamine 3 mg/kg i.p.
Description: Forced Swim Test (FST). Male C57/BL6J mice (9-10 weeks old at time of experiment, n=10 per condition) were obtained from the Jackson Lab and housed 4-5 mice/cage in a UCD vivarium following an IACUC approved protocol. After 1 week in the vivarium each mouse was handled for approximately 1 minute by a experimenter for 3 consecutive days leading up to the first FST. All experiments were carried out by the same experimenter who performed handling. During the FST, mice underwent a 6 min swim session in a clear Plexiglas cylinder 40 cm tall, 20 cm in diameter, and filled with 30 cm of 24±1° C. water. Fresh water was used for every mouse. After handling and habituation to the experimenter, drug-naïve mice first underwent a pretest swim to more reliably induce a depressive phenotype in the subsequent FST sessions. Immobility scores for all mice were determined after the pre-test and mice were randomly assigned to treatment groups to generate groups with similar average immobility scores to be used for the following two FST sessions. […] Experiments were video-recorded and manually scored offline. Immobility time—defined as passive floating or remaining motionless with no activity other than that needed to keep the mouse's head above water—was scored for the last 4 min of the 6 min trial.

[4] = test system: rat embryonic cortical neurons; experiment: Dendritogenesis (Sholl analysis) in cultured cortical neurons; type: cell-based
Description: Embryonic rat cortical neurons were treated for a short period of time (1 h) followed by a suitable growth period (71 h) to measure the psychoplastogenic effects of the compounds described herein. […] Therefore, the effects of ibogalogs 8-17 on dendritic growth was assessed.
Dendritogenesis Experiments. For the dendritogenesis experiments conducted using cultured cortical neurons, timed pregnant Sprague Dawley rats were obtained from Charles River Laboratories (Wilmington, MA). Full culturing, staining, and analysis details were performed as previously described. (Dunlap, L. et al., 2019)

mouse 5-HT2A receptors, sequence (P35363 whole entry, canonical isoform): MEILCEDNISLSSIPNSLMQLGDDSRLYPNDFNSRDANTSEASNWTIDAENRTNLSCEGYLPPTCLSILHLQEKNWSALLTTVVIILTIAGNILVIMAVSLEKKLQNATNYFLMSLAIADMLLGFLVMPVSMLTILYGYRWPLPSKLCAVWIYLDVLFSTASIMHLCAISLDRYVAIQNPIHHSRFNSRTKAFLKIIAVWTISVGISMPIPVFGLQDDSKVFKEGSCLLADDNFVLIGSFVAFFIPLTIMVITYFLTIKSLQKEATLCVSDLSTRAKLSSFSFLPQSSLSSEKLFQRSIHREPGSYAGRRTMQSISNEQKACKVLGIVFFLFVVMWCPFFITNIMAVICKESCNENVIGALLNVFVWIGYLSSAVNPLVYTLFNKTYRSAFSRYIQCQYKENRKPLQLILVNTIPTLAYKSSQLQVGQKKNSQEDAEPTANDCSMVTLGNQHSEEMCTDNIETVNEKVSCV

COc1ccc2c3c([nH]c2c1)CCN(C)CC3 [TBG]
seizure induction (neural activity) [1]: Neither ibogaine nor TBG produced excessive neural activity; also recorded: does not induce seizures
agonist activity at mouse 5-HT2A receptors (mouse 5-HT2A receptors): potent agonist activity
EtOH consumption in the days following administration (C57/BL6J mice [2]; TBG 50 mg/kg i.p.): long-lasting decreases in EtOH consumption; also recorded: lower for at least two days
EtOH preference during binge drinking session (C57/BL6J mice [2]; TBG 50 mg/kg i.p.): reduces EtOH consumption and preference
water intake (C57/BL6J mice [2]; TBG 50 mg/kg i.p.): without impacting H2O intake; also recorded: not affected
EtOH consumption during binge drinking session (C57/BL6J mice [2]; first 4 h, TBG 50 mg/kg i.p. 3 h before session): reduces EtOH consumption and preference; also recorded: robustly reduces binge drinking
behavioral phenotype at highest concentration versus lethal control (larval zebrafish; 200 μM): did not produce this phenotype
behavioral phenotype with increasing concentration versus vehicle and lethal control (eugenol, 100 μM) (larval zebrafish; 1 h treatment, concentration-response): do not produce movement responses in larval zebrafish similar to a lethal concentration of eugenol
machine learning classification of movement responses (larval zebrafish; highest concentrations (200 μM)): more similar to vehicle controls than to ibogaine, noribogaine, or lethal controls
immobility in FST (C57/BL6J mice [3]): antidepressant-like effects; also recorded: significantly reduced immobility
dendritic arbor complexity (Sholl analysis, Nmax) ([4]; DIV6): increased dendritic arbor complexity
effect on dendritic growth after pretreatment with ketanserin (5-HT2A antagonist) ([4]; ketanserin pretreatment): blocked by the 5-HT2A antagonist ketanserin; also recorded: completely abrogated its effects
